Drawing on patent US20240174662A1, “SMALL MOLECULE INHIBITORS OF SALT INDUCIBLE KINASES” (Janssen Biotech, Inc., priority 2021, published 2024), this text covers IC50 for 29 molecules.

A word on the IC50: it is the concentration that inhibits the measured activity by half.

This assay has as its target SIK2 (Homo sapiens (Human), UniProt Q9H0K1). Put plainly: SIK2 Enzymatic Assay Version 2 (High ATP). As to conditions: 3 mM ATP and 200 μM HDAC5tide final, ADP-Glo Max luminescence. In kind it is biochemical. Put shortly: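 Run at room temperature; SIK2 enzyme at 6 nM (2× final) preincubated with compound 30 min before reaction. ADP formation detected by ADP-Glo Max (2 h reagent, 1 h detection) with luminescence read-out.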

Sequence of SIK2 (Q9H0K1 whole entry, species assumed): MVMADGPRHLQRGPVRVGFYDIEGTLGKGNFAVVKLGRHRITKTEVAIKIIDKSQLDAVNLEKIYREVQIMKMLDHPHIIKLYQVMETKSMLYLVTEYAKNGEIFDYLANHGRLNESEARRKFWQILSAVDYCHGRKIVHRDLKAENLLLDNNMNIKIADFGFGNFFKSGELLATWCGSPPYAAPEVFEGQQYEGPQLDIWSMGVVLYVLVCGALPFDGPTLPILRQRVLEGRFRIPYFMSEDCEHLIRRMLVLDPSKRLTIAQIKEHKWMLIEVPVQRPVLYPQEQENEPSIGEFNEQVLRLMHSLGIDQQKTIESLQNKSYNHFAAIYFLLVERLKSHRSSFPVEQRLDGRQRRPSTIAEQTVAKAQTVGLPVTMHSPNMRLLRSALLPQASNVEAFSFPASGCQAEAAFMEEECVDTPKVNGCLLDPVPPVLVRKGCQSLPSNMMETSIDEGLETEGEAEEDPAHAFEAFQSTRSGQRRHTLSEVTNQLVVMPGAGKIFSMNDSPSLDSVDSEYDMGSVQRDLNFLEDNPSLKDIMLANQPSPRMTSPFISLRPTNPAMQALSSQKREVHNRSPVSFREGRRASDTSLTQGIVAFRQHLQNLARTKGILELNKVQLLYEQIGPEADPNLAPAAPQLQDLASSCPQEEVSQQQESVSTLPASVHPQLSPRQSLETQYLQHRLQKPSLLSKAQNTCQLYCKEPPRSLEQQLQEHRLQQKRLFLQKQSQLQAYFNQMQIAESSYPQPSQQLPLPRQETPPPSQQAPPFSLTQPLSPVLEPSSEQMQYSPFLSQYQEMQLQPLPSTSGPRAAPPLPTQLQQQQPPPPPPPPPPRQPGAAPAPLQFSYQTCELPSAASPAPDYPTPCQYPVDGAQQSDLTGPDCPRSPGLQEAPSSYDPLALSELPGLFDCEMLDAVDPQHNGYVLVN

In turn, `C[C@H](O)CN1CC[C@@H]1COc1cnn(C)c1-c1ccn2nc(NC(=O)C3CC3)cc2c1` [Example 253, N-[5-[4-[[(2R)-1-[(2S)-2-hydroxypropyl]azetidin-2-yl]methoxy]-2-methyl-pyrazol-3-yl]pyrazolo[1,5-a]pyridin-2-yl]cyclopropanecarboxamide] came in with an IC50 of 0.0024 µM.

As to `Cc1cc(Nc2cc3cc(-c4c(OC[C@H]5CCCN5C)cnn4C)ccn3n2)nc(C)n1` [Example 282, N-(2,6-dimethylpyrimidin-4-yl)-5-[2-methyl-4-[[(2R)-1-methylpyrrolidin-2-yl]methoxy]pyrazol-3-yl]pyrazolo[1,5-a]pyridin-2-amine], the IC50 amounted to 0.0113 µM.

In turn, `CN1CC[C@H](Oc2cnn(C)c2-c2ccn3nc(Nc4cc(C(F)(F)F)ccn4)cc3c2)C1` [Example 340, 5-[2-methyl-4-[(3S)-1-methylpyrrolidin-3-yl]oxy-pyrazol-3-yl]-N-[4-(trifluoromethyl)-2-pyridyl]pyrazolo[1,5-a]pyridin-2-amine] showed an IC50 of 0.0554 µM.

Regarding `Cc1onc(OC[C@@H](N)C2CC2)c1-c1ccn2nc(NC(=O)C3CC3)cc2c1` [Example 328, N-[5-[3-[(2S)-2-amino-2-cyclopropyl-ethoxy]-5-methyl-isoxazol-4-yl]pyrazolo[1,5-a]pyridin-2-yl]cyclopropanecarboxamide], 0.0618 µM corresponded to half-maximal inhibition (IC50).

`Cc1cc(Nc2cc3cc(-c4c(OC[C@H]5CCN5C)cnn4C)ccn3n2)nnc1C` [Example 17, N-(5,6-Dimethylpyridazin-3-yl)-5-[2-methyl-4-[[(2R)-1-methylazetidin-2-yl]methoxy]pyrazol-3-yl]pyrazolo[1,5-a]pyridin-2-amine] gave a concentration for half-maximal inhibition (IC50) below 0.000847 µM.

Molecule `Cc1cncc(Nc2cc3cc(-c4c(CO[C@H]5CN(C)C[C@@H]5C)cnn4C)ccn3n2)n1` [Example 373, (rac-trans)-5-[4-[(1,4-dimethylpyrrolidin-3-yl)oxymethyl]-2-methyl-pyrazol-3-yl]-N-(6-methylpyrazin-2-yl)pyrazolo[1,5-a]pyridin-2-amine] gave a half-maximal inhibitory concentration (IC50) of 0.0072 µM.

For `CN1CC[C@@H]1COc1cnn(C)c1-c1ccn2nc(NC(=O)[C@@H]3C[C@@H]3c3ccccc3)cc2c1` (single isomer, unassigned) [Example 474, (1*R,2*S)—N-(5-(1-methyl-4-(((R)-1-methylazetidin-2-yl)methoxy)-1H-pyrazol-5-yl)pyrazolo[1,5-a]pyridin-2-yl)-2-phenylcyclopropane-1-carboxamide], the IC50 is 0.428 µM. This IC50 is about 59-fold higher than that of the molecule before.

With `Cn1ncc(CO[C@@H]2CNC[C@H]2F)c1-c1ccn2nc(NC(=O)C3CC3)cc2c1` [Example 466, N-[5-[4-[[(3R,4R)-4-fluoropyrrolidin-3-yl]oxymethyl]-2-methyl-pyrazol-3-yl]pyrazolo[1,5-a]pyridin-2-yl]cyclopropanecarboxamide], the IC50 is 0.0807 µM.

The molecule `Cc1cc(Nc2cc3cc(-c4c(OCC(N)C5(C)CC5)cnn4C)ccn3n2)nc(C)n1` (centres unmarked) [Example 309, 5-[4-[2-amino-2-(1-methylcyclopropyl)ethoxy]-2-methyl-pyrazol-3-yl]-N-(2,6-dimethylpyrimidin-4-yl)pyrazolo[1,5-a]pyridin-2-amine] had an IC50 of 0.0029 µM.

`CN1CC[C@@H]1COc1cnn(C)c1-c1ccn2nc(Nc3cnn(C)c3)cc2c1` [Example 142, 5-[2-methyl-4-[[(2R)-1-methylazetidin-2-yl]methoxy]pyrazol-3-yl]-N-(1-methylpyrazol-4-yl)pyrazolo[1,5-a]pyridin-2-amine] came in with a concentration for half-maximal inhibition (IC50) of 0.0028 µM. This IC50 and that of the molecule before are within 1.5-fold of each other.

As for `Cc1onc(O[C@@H]2CCNC2)c1-c1ccn2nc(NC(=O)C3CC3)cc2c1` [Example 74, N-[5-[5-methyl-3-[(3R)-pyrrolidin-3-yl]oxy-isoxazol-4-yl]pyrazolo[1,5-a]pyridin-2-yl]cyclopropanecarboxamide], the concentration for half-maximal inhibition (IC50) is 0.144 µM.

`Cc1onc(OC[C@H](N)c2ccccc2)c1-c1ccn2nc(NC(=O)C3CC3)cc2c1` [Example 204, N-[5-[3-[(2R)-2-amino-2-phenyl-ethoxy]-5-methyl-isoxazol-4-yl]pyrazolo[1,5-a]pyridin-2-yl]cyclopropanecarboxamide]: the half-inhibitory concentration (IC50) amounted to 0.0174 µM.

Molecule `Cc1cc(C(=O)NCC(C)(C)O)cc(Nc2cc3cc(-c4c(OC[C@H]5CCN5C)cnn4C)ccn3n2)n1` [Example 111, N-(2-hydroxy-2-methyl-propyl)-2-methyl-6-[[5-[2-methyl-4-[[(2R)-1-methylazetidin-2-yl]methoxy]pyrazol-3-yl]pyrazolo[1,5-a]pyridin-2-yl]amino]pyridine-4-carboxamide] showed an IC50 of 0.0013 µM.

In turn, `Cc1cc(Nc2cc3cc(-c4c(O[C@@H]5CCN[C@H]5C)cnn4C)ccn3n2)nc(C)n1` [Example 298, N-(2,6-dimethylpyrimidin-4-yl)-5-[2-methyl-4-[(2S,3R)-2-methylpyrrolidin-3-yl]oxy-pyrazol-3-yl]pyrazolo[1,5-a]pyridin-2-amine] yielded an IC50 of 0.0392 µM.

`CN1CC[C@@H]1COc1cnn(C)c1-c1ccn2nc(NC(=O)[C@@H]3C[C@@H]3c3ccccc3)cc2c1` (mixture of isomers) [Example 473, cis-N-[5-[2-methyl-4-[(1-methylazetidin-2-yl)methoxy]pyrazol-3-yl]pyrazolo[1,5-a]pyridin-2-yl]-2-phenyl-cyclopropanecarboxamide]: the IC50 was determined as 0.113 µM.

Regarding `CNC(=O)c1ccc(Nc2cc3cc(-c4c(OC[C@H]5CCN5C)cnn4C)ccn3n2)nc1` [Example 126, N-methyl-6-[[5-[2-methyl-4-[[(2R)-1-methylazetidin-2-yl]methoxy]pyrazol-3-yl]pyrazolo[1,5-a]pyridin-2-yl]amino]pyridine-3-carboxamide], the half-inhibitory concentration (IC50) is 0.0041 µM.

For the molecule `Cc1cc(Nc2cc3cc(-c4c(OC[C@@H]5CC6(CCCC6)CO5)cnn4C)ccn3n2)nc(C)n1` (single isomer, unassigned) [Example 443, (*S)—N-(2,6-dimethylpyrimidin-4-yl)-5-[2-methyl-4-(8-oxaspiro[4.4]nonan-7-ylmethoxy)pyrazol-3-yl]pyrazolo[1,5-a]pyridin-2-amine], inhibition was half-maximal at 0.0743 µM (IC50).

For `Cc1onc(OC[C@H]2CCN2C)c1-c1ccc2nc(NC(=O)C3CC3)cn2c1` [Example 329, N-[6-[5-methyl-3-[[(2R)-1-methylazetidin-2-yl]methoxy]isoxazol-4-yl]imidazo[1,2-a]pyridin-2-yl]cyclopropanecarboxamide], the concentration for half-maximal inhibition (IC50) came to 0.035 µM.

`C[C@H]1C[C@@H]1C(=O)Nc1cc2cc(-c3c(OC[C@H]4CCN4C)cnn3C)ccn2n1` [Example 15, (1S,2S)-2-methyl-N-[5-[2-methyl-4-[[(2R)-1-methylazetidin-2-yl]methoxy]pyrazol-3-yl]pyrazolo[1,5-a]pyridin-2-yl]cyclopropanecarboxamide] gave an IC50 of 0.0091 µM. This IC50 is about 3.8-fold lower than that of the molecule before.

In the case of `Cc1cncc(Nc2cc3cc(-c4c(CO[C@H]5CN(C)C[C@H]5C)cnn4C)ccn3n2)n1` (stereo in doubt) [Example 370, CIS-Rac-5-[4-[(1,4-dimethylpyrrolidin-3-yl)oxymethyl]-2-methyl-pyrazol-3-yl]-N-(6-methylpyrazin-2-yl)pyrazolo[1,5-a]pyridin-2-amine], the midpoint of inhibition, the IC50, lay at 0.0029 µM. This IC50 is about 3.1-fold lower than that of the molecule before.

`Cc1ncc(Nc2cc3cc(-c4c(OC[C@H]5CCN5C[C@H](C)O)cnn4C)ccn3n2)nc1C` [Example 297, (2S)-1-[(2R)-2-[[5-[2-[(5,6-dimethylpyrazin-2-yl)amino]pyrazolo[1,5-a]pyridin-5-yl]-1-methyl-pyrazol-4-yl]oxymethyl]azetidin-1-yl]propan-2-ol] yielded an IC50 below 0.000847 µM.

For the molecule `CN1CC[C@@H]1COc1cnn(C)c1-c1ccn2nc(Nc3ncc(F)cn3)cc2c1` [Example 395, N-(5-fluoropyrimidin-2-yl)-5-[2-methyl-4-[[(2R)-1-methylazetidin-2-yl]methoxy]pyrazol-3-yl]pyrazolo[1,5-a]pyridin-2-amine], inhibition was half-maximal at 0.0975 µM (IC50).

In turn, `CN1C[C@@H](F)[C@H](OCc2cnn(C)c2-c2ccn3nc(NC(=O)C4CC4)cc3c2)C1` [Example 467, N-[5-[4-[[(3R,4R)-4-fluoro-1-methyl-pyrrolidin-3-yl]oxymethyl]-2-methyl-pyrazol-3-yl]pyrazolo[1,5-a]pyridin-2-yl]cyclopropanecarboxamide] gave an IC50 of 0.113 µM.

In turn, `CN1CCC(Oc2cnn(C)c2-c2ccn3nc(NC(=O)C4CC4)cc3c2)CC1` [Example 492, N-[5-[2-methyl-4-[(1-methyl-4-piperidyl)oxy]pyrazol-3-yl]pyrazolo[1,5-a]pyridin-2-yl]cyclopropanecarboxamide] registered a half-inhibitory concentration (IC50) of 0.431 µM.

On to `CC(C)c1cc(Nc2cc3cc(-c4c(O[C@H]5CCN(C)C5)cnn4C)ccn3n2)ncn1` [Example 271, N-(6-isopropylpyrimidin-4-yl)-5-[2-methyl-4-[(3S)-1-methylpyrrolidin-3-yl]oxy-pyrazol-3-yl]pyrazolo[1,5-a]pyridin-2-amine], for which the IC50 was determined as 0.0408 µM.

Consider `CN1CCCC[C@H]1COc1cnn(C)c1-c1ccn2nc(NC(=O)C3CC3)cc2c1` [Example 505], for which 1.38 µM corresponded to half-maximal inhibition (IC50).

Molecule `CCN1CC[C@@H]1COc1cnn(C)c1-c1ccn2nc(Nc3cc(C)nc(C(C)(C)C)n3)cc2c1` [Example 177, N-(2-tert-butyl-6-methyl-pyrimidin-4-yl)-5-[4-[[(2R)-1-ethylazetidin-2-yl]methoxy]-2-methyl-pyrazol-3-yl]pyrazolo[1,5-a]pyridin-2-amine] gave an IC50 of 0.0015 µM.

As for `Cc1cc(Nc2cc3cc(-c4c(OC[C@@H](O)C5(C)CC5)cnn4C)ccn3n2)nc(C)n1` (single isomer, unassigned) [Example 357, *S-1-methylcyclopropyl-2-[5-[2-[(2,6-dimethylpyrimidin-4-yl)amino]pyrazolo[1,5-a]pyridin-5-yl]-1-methyl-pyrazol-4-yl]oxy-ethanol], 0.0619 µM corresponded to half-maximal inhibition (IC50).

Consider `CN1CC[C@H](OCc2cnn(C)c2-c2ccn3nc(NC(=O)C4CC4)cc3c2)C1` [Example 464, N-[5-[2-methyl-4-[[(3S)-1-methylpyrrolidin-3-yl]oxymethyl]pyrazol-3-yl]pyrazolo[1,5-a]pyridin-2-yl]cyclopropanecarboxamide], for which the half-maximal inhibitory concentration (IC50) amounted to 0.0828 µM.
